The source of these data is patent publication US11446384B2, “Agent for targeting heart comprising tannic acid” (Korea Research Institute of Chemical Technology, priority 2018, dated 2022).

The subject of data set [1] is myocardial ischemia reperfusion (MIR). Briefly: Infarct size (TTC staining) in MIR animal model after intravenous bFGF. Type of data set: in vivo, rats (SD rats). Conditions: MIR rats, 28 days after injection. How it is done: Particularly, rats (SD rats, 8 weeks old, male, 230-270 g) were anesthetized with a mixture of isoflurane (3 cc min^-1), Rompun, xylazine (1 mg kg^-1) and oxygen in an induction chamber. Then, the rats were intubated and a mixture of isoflurane and oxygen was allowed to flow at a rate of 1 cc min^-1. The rat heart was exposed through left thoracotomy, followed by occulusion for 10 minutes. The suture line was quickly loosened to resume blood flow through the left anterior descending artery (LAD). […] Upon completion of the hemodynamic evaluation, the heart was separated and immersed in warm PBS ( 37° C.) to eliminate blood residues. Then, the heart was quickly frozen at -20° C., and the frozen heart was sliced lengthwise approximately 2 mm away the apex. The slice was placed on a cell culture dish, which was treated with 1% TTC (triphenyltetrazolium chloride) dissolved in PBS at 37° C. for 15 minutes. After staining, the heart slice was photographed with a scanner. Then, live tissues stained with red and necrotic tissues non-stained and thus presented as white were distinguished. The size of the infarct area was measured digitally using ImageJ software, and the results are presented as %.

Data set [2] shares this test system. As to the kind of experiment: In vivo hemodynamic evaluation of left ventricular function in MIR animal model. Also noted: species or system rats (SD rats). Conditions: MIR rats; for EDP / EDV / ESP / ESV / Ea / HR / SW / Tau: 5 μg i.v., 28 days. As for the experimental part:
Particularly, rats (SD rats, 8 weeks old, male, 230-270 g) were anesthetized with a mixture of isoflurane (3 cc min^-1), Rompun, xylazine (1 mg kg^-1) and oxygen in an induction chamber. Then, the rats were intubated and a mixture of isoflurane and oxygen was allowed to flow at a rate of 1 cc min^-1. The rat heart was exposed through left thoracotomy, followed by occulusion for 10 minutes. The suture line was quickly loosened to resume blood flow through the left anterior descending artery (LAD). […] 28 days after the injection, in vivo hemodynamic evaluation was performed to investigate the left ventricular function using […]500 (Transonic, USA) outputting data to LabScribe data collection software (iWorx/CB Sciences, USA).

Data set [3] can be described thus: Turbidimetry binding analysis of TA and hyaluronic acid. Conditions: HA 0.24 mg/mL, TA 17 mg/mL, 1:1. As for the experimental part:
(§1) For turbidity analysis, each solution of elastin, type I collagen, HS and HA was prepared by diluting them in PBS at the concentration of 0.24 mg/mL. TA (17 mg/mL) was added to each solution at the volume ratio of 1:1, followed by mixing vigorously. Turbidity was measured at 600 nm using UV/vis spectrometer (HP8453, Hewlett-Packard, USA).

Data set [4] addresses T1, elastin (Homo sapiens, UniProt P15502).
T1 sequence (P15502 27-786): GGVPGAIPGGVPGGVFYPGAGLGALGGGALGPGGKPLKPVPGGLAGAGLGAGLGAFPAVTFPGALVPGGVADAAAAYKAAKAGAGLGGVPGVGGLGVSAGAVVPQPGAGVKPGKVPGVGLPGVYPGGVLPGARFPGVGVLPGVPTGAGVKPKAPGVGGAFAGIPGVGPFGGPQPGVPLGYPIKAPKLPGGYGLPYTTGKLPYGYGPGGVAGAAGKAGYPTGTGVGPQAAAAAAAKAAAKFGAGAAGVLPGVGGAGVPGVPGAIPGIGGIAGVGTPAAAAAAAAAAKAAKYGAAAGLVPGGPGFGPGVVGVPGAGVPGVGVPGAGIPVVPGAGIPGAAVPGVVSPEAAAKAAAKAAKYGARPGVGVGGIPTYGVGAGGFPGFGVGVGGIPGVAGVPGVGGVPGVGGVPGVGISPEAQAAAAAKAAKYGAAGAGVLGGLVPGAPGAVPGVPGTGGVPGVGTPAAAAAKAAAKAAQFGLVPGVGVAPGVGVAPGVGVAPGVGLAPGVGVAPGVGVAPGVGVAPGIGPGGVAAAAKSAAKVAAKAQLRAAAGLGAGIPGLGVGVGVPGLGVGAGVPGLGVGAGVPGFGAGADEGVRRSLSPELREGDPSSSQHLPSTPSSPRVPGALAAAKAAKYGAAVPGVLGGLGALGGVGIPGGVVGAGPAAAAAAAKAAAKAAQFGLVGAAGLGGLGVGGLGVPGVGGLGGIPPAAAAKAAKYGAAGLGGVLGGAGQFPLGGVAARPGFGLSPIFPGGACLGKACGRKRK
Briefly: SPR binding analysis of TA and elastin. Conditions: surface adsorbed with elastin, TA 2 mg/mL. As for the experimental part:
(§2) For SPR analysis, each solution of elastin, type I collagen (10 μg/mL) and TA (2 mg/mL) was prepared by diluting them in PBS (pH 7.3). All the solutions were filtered with 0.2 μm microfilter (Millipore, USA). Each protein (elastin or type I collagen) was adhered on Biacore gold (Au) sensor chip for 600 seconds. The chip was washed for 10 minutes to eliminate such samples attached weakly thereon. SPR analysis was performed at the flow rate of 10 μl/min using PBS as a flow buffer.
(In general: In SPR one partner is held on a chip, and binding of the other changes the refractive index at the surface.)

In data set [5] the target is T2, type I collagen (Homo sapiens, UniProt P02452+P08123). Briefly: Turbidimetry binding analysis of TA and type I collagen. Conditions: type I collagen 0.24 mg/mL, TA 17 mg/mL, 1:1. As for the experimental part:
as §1

A short description of data set [6]: Turbidimetry binding analysis of TA and heparin sulfate. Conditions: HS 0.24 mg/mL, TA 17 mg/mL, 1:1. How it is done: as §1
Data set [7] has as its target T1, elastin. As to the kind of experiment: ITC binding analysis of TA and elastin. As for the experimental part: Elastin (210 μg/mL) and TA (2.5 mg/mL) solutions were used for ITC analysis. Elastin was placed in a sample cell. The TA solution was placed in a syringe, which was injected to the elastin in the sample cell (250 μl) (50 sequential injections, 5 μl per injection) for titration (with stirring at 350 rpm). Time interval was set at 180 seconds for subsequent injection, and raw data was processed using Microcal Origin (Microcal Software, Northampton, USA).

Data set [8] deals with T1, elastin. As to the kind of experiment: Turbidimetry binding analysis of TA and elastin. Conditions: elastin 0.24 mg/mL, TA 17 mg/mL, 1:1. As for the experimental part:
as §1

Data set [9] addresses T2, type I collagen. As to the kind of experiment: SPR binding analysis of TA and type I collagen. Conditions: surface adsorbed with collagen, TA 2 mg/mL. How it is done:
as §2

The nature of data set [10]: Size of tannylated SP (particle size analyzer). Type of data set: physicochemical. Conditions: [SP]/[TA] ratio of 20 or 10. How it is done: The mixed solutions with the [SP]/[TA] ratios of 20, 10, 5, 1 and 0.5 prepared to produce tannylated SP in Example 2 were observed by naked eye. Then, the size of tannylated SP ([SP]/[TA] ratio=20 and 10, volume=1 mL) was analyzed using a particle size analyzer (Zetasizer nano-ZS, Malvern instrument, UK).

Setting [11] is: 5 μg i.v., non-treated control 51%.

T2 sequence (P02452 162-1218 limits assumed): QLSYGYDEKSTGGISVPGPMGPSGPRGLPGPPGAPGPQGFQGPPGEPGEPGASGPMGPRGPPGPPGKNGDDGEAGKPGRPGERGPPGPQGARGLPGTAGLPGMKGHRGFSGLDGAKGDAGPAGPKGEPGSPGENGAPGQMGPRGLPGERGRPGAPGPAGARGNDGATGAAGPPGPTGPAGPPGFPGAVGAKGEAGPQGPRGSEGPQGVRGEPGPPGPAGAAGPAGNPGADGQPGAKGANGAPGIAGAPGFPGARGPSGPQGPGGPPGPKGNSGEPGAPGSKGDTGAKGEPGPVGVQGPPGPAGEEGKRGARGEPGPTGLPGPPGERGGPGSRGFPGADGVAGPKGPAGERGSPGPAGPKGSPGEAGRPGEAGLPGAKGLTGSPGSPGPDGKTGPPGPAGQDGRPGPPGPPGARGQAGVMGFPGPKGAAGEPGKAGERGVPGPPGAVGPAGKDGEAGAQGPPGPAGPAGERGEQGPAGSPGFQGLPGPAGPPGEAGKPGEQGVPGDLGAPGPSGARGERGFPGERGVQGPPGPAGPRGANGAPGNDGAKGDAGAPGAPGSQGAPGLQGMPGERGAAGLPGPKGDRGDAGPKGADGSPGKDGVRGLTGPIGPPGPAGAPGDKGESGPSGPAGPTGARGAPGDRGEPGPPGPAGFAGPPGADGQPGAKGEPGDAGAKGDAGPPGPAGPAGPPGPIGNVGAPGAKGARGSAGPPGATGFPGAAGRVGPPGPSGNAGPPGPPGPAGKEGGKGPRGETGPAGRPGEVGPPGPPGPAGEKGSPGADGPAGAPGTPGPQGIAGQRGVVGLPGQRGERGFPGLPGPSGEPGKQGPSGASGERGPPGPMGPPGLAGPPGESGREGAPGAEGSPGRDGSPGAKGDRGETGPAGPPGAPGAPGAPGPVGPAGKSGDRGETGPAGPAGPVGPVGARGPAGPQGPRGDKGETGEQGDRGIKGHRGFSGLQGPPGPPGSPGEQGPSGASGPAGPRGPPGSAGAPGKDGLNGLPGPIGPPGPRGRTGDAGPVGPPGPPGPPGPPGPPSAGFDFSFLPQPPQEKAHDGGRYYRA
T2 sequence (P08123 80-1119 limits assumed): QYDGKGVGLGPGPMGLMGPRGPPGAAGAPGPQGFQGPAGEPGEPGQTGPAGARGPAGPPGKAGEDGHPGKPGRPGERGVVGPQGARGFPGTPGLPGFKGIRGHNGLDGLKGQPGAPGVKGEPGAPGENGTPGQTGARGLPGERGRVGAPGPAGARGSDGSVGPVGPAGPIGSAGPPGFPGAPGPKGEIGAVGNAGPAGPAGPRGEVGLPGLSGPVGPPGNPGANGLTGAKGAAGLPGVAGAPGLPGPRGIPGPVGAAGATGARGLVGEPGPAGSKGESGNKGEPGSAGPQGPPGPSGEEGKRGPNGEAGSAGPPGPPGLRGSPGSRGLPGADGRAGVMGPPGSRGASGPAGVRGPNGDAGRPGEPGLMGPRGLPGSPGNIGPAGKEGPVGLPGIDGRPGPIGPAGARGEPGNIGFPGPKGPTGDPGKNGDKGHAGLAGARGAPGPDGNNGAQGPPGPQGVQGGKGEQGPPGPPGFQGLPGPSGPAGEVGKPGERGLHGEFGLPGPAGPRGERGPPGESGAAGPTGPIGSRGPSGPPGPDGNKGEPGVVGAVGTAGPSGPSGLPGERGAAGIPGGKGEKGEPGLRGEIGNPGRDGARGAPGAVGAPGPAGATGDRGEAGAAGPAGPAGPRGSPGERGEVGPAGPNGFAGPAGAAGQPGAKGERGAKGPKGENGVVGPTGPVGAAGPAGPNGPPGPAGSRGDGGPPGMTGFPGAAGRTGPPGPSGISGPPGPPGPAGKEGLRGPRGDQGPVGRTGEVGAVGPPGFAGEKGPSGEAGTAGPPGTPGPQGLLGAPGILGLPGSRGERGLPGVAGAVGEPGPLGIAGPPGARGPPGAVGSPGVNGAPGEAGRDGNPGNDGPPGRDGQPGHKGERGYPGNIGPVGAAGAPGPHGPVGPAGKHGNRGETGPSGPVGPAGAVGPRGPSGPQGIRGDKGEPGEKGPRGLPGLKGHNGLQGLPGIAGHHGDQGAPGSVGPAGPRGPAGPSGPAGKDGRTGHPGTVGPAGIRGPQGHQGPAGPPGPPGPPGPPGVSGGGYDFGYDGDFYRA

Regarding “tannylated bFGF: bFGF (SEQ ID NO: 1) mixed with TA solution, stoichiometric molar ratio [TA]/[bFGF] of 143”, in [1] (setting [11]), the infarct size result is reported as “approximately 16%”. In [2], the EDP is 9.8 ± 1.6 mmHg, the EDV came to 295.9 ± 23.3 µL, the ESP came to 103.8 ± 4.6 mmHg and the ESV is 133.9 ± 19.5 µL. In data set [2], the Ea is on record as 0.77 ± 0.14 mmHg/μL, the HR is recorded as 322.7 ± 18.0 bpm, the SW is reported as 3.00 ± 0.53 mmHg · mL · kg and the Tau stood at 11.7 ± 1.1 ms. Moreover, the “hemodynamic functional values (left ventricular pressure, stroke volume, cardiac output, ventricular contractility index)” value in data set [2] (i.v., 28 days after injection, versus sham group) is “recovered all the hemodynamic functional values”.
`O=C(OC[C@H]1O[C@@H](OC(=O)c2cc(O)c(O)c(OC(=O)c3cc(O)c(O)c(O)c3)c2)[C@H](OC(=O)c2cc(O)c(O)c(OC(=O)c3cc(O)c(O)c(O)c3)c2)[C@@H](OC(=O)c2cc(O)c(O)c(OC(=O)c3cc(O)c(O)c(O)c3)c2)[C@@H]1OC(=O)c1cc(O)c(O)c(OC(=O)c2cc(O)c(O)c(O)c2)c1)c1cc(O)c(O)c(OC(=O)c2cc(O)c(O)c(O)c2)c1` [tannic acid]: in data set [3], the “turbidity change of HA solution after addition of TA” value is listed as “no turbidity change was observed”. In addition, the “SPR ΔRU value” on elastin [4] amounted to 1319. Further, the “turbidity (A600) of collagen solution after addition of TA” value at type I collagen [5] was 0.173±0.022. For the same compound, the “turbidity change of HS solution after addition of TA” value in data set [6] is “no turbidity change was observed”. At elastin [7] (ITC), the “[TA]/[elastin] ratio of first step (TA conjugated with elastin inter-molecularly)” value is given as “up to 20” and the “[TA]/[elastin] ratio of second step (inter-TA/elastin complexes conjugated each other)” value is at least 30. Also, at elastin [7] (elastin 210 μg/mL, TA […]), the “ITC thermodynamics of binding between TA and elastin” value is listed as “exothermic interaction”. On elastin [8], the “turbidity (A600) of elastin solution after addition of TA” value is on record as 1.219±0.022. Also, the “SPR ΔRU value” on type I collagen [9] is listed as 793.
In data set [1] (setting [11]), “bFGF: basic fibroblast growth factor, SEQ ID NO: 1” came in with an infarct size of 31%. In addition, the infarct size result in data set [1] (25 μg i.v.) is on record as “not much different from when 5 μg of bFGF was administered”. Also, in data set [2], the EDP was determined as 8.5 ± 0.9 mmHg, the EDV was 365.3 ± 27.5 µL, the ESP amounted to 85.3 ± 1.7 mmHg and the ESV worked out at 254.5 ± 13.8 µL. In data set [2], this compound returned an Ea of 0.86 ± 0.12 mmHg/μL, an HR of 316.5 ± 12.9 bpm, an SW of 1.51 ± 0.14 mmHg · mL · kg and a Tau of 11.7 ± 0.5 ms.
“tannylated SP: substance P (SEQ ID NO: 2, RPKPQQFFGLM) mixed with tannic acid solution at [SP]/[TA] ratios 0.5-20”: in data set [10], the size of complex result is listed as “up to 1 μm”.
